Results taken from US20120245137A1 (Zalicus Pharmaceuticals Ltd., priority 2009, published 2012).
Where two headings read alike, the source gives them in different places.

How the values were obtained:
[1] = target: human α1G T-type channels (Homo sapiens, UniProt O43497); assay: T-type calcium channel block, whole cell patch clamp, α1G; assay type: cell-based; conditions: HEK cells stably expressing human α1G; mainly non-inactivated protocol; values above 10,000 nM represented as 10000
Summary of the method: (§1)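 Cells are stable HEK 293 lines carrying human α1G or α1H channels, patched in whole-cell mode. Resting block comes from the non-inactivated pre-pulse; voltage-dependent block from the inactivated protocol.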

[2] = tested on: male CF1 mice; assay: 6 Hz psychomotor seizure model of partial epilepsy; assay type: in vivo; parameters: concentration or dose not given beside the values; conditions: 6 Hz 32 mA corneal stimulus
From the text: Compounds can also be evaluated for the protection against seizures induced by a 6 Hz, 0.2 ms rectangular pulse width of 3 s duration, at a stimulus intensity of 32 mA (CC97) applied to the cornea of male CF1 mice (20-30 g) according to procedures described by Barton et al, “Pharmacological Characterization of the 6 Hz Psychomotor Seizure Model of Partial Epilepsy,” Epilepsy Res. 47(3):217-27 (2001). Seizures are characterised by the expression of one or more of the following behaviours: stun, forelimb clonus, twitching of the vibrissae and Straub-tail immediately following electrical stimulation.

[3] = tested on: mice; assay: Mouse rotarod assay; conditions: rod at 6 rpm
Procedure: (§3) In mice, the rotarod procedure (Dunham and Miya, J. Am. Pharmacol. Assoc. 46:208-209 (1957)) is used to disclose minimal muscular or neurological impairment (MMI). When a mouse is placed on a rod that rotates at a speed of 6 rpm, the animal can maintain its equilibrium for long periods of time. The animal is considered toxic if it falls off this rotating rod three times during a 1-min period.

[4] = target: human α1H T-type channels (Homo sapiens, UniProt O95180); assay: T-type calcium channel block, whole cell patch clamp, α1H; assay type: cell-based; conditions: HEK cells stably expressing human α1H; mainly non-inactivated protocol; values above 10,000 nM represented as 10000
Chain of human α1H T-type channels (O95180 whole entry): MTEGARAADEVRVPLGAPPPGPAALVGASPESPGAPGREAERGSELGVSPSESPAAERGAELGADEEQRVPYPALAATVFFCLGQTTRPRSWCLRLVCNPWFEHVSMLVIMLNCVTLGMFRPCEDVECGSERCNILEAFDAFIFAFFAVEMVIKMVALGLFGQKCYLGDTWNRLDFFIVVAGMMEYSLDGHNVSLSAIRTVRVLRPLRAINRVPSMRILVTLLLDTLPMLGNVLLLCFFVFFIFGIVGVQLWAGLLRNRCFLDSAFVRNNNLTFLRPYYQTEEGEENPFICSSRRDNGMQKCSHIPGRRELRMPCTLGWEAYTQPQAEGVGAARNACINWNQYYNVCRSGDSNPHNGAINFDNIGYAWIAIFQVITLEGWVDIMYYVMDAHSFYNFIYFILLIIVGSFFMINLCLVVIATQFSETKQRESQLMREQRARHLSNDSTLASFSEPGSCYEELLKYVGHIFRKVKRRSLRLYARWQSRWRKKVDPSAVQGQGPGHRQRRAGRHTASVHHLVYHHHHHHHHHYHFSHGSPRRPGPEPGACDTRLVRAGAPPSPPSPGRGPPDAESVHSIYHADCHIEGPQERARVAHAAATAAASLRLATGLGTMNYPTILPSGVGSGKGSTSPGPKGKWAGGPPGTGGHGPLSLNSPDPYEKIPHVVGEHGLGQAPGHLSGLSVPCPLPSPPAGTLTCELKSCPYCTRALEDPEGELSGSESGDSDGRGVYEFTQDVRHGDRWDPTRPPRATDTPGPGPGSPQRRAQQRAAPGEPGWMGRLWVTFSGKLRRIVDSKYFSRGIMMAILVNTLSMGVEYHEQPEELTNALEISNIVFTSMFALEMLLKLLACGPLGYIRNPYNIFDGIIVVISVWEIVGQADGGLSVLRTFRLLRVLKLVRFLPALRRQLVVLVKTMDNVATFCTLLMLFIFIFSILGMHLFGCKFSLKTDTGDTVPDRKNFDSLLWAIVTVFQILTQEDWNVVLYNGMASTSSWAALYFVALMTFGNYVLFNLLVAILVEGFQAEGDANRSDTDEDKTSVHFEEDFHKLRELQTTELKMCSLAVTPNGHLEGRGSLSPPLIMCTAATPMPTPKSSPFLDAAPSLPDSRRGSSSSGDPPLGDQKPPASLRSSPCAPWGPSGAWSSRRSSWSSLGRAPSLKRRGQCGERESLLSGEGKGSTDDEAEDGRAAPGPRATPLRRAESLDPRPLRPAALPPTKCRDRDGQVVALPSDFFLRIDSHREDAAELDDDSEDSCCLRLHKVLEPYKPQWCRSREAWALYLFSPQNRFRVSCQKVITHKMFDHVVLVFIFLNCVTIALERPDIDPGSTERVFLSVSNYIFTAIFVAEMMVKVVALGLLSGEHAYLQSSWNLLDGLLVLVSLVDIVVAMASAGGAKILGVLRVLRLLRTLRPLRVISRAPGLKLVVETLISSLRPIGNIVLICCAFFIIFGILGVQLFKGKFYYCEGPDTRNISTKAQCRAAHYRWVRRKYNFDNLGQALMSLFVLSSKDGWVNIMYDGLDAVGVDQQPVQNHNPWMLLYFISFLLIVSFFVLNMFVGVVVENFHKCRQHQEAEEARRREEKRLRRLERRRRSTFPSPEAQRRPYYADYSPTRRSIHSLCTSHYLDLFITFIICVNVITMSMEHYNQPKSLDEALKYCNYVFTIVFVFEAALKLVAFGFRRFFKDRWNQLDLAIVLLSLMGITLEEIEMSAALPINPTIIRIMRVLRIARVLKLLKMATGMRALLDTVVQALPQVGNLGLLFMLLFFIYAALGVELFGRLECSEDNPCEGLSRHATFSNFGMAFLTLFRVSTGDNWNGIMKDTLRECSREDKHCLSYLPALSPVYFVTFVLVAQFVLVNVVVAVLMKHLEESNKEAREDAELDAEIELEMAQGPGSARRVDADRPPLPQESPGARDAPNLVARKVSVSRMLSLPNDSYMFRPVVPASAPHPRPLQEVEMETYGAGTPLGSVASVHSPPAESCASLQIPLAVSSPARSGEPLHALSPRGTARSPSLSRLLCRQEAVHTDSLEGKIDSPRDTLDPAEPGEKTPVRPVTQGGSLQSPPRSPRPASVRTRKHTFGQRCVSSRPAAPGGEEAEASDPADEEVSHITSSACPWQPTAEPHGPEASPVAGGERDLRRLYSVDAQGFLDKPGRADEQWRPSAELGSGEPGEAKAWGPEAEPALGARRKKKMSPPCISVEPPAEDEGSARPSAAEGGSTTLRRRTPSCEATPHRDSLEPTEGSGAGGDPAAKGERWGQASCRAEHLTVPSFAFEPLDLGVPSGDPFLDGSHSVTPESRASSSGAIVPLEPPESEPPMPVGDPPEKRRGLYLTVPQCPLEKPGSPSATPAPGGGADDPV
Summary of the method: as §1

[5] = target: N-type calcium channel subunits (α1B, α2δ, and β3a) (Homo sapiens, UniProt Q00975); assay: Block of Cav2.2 channel, whole cell voltage clamp, manual and PatchXpress; assay type: cell-based; conditions: Table 5; table follows Assay Example 3 (whole cell voltage clamp / PatchXpress); assay not given
Summary of the method: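 Percent block taken as current amplitude ratio with versus without compound, applied in rising doses; IC50 fitted where one cell received multiple doses. Protocol: 50 ms pulses to +20 mV at 0.067 Hz from […] or −90 mV holding; P/n leak subtraction, no junction-potential correction; manual and PatchXpress recordings.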

[6] = tested on: mice; conditions: mouse, in vivo
Procedure: as §3

[7] = target: CAv1.2 (Homo sapiens, UniProt Q13936); assay: L-type (CAv1.2) channel blocking, FLIPR data (Table 6); assay type: cell-based
[8] = target: T-type calcium channel (Homo sapiens, UniProt O95180); assay: T-type channel blocking, FLIPR data (Table 6); assay type: cell-based; conditions: for CAv3.2 IC50 Ratio closed/inact.: CAv3.2, ratio closed/inact.
Chain of T-type calcium channel (Homo sapiens, UniProt O95180) (O95180 whole entry): as above
From the text: (§2) Another method, high-throughput spectrophotometric assay, utilizes loading of the cell lines with a fluorescent dye sensitive to intracellular calcium concentration and subsequent examination of the effects of compounds on the ability of depolarization by potassium chloride or other means to alter intracellular calcium levels.

[9] = target: T-type calcium channel (Homo sapiens, UniProt O43497); assay: T-type channel blocking, FLIPR data (Table 6); assay type: cell-based; conditions: CAv3.1
Chain of T-type calcium channel (Homo sapiens, UniProt O43497) (O43497 whole entry): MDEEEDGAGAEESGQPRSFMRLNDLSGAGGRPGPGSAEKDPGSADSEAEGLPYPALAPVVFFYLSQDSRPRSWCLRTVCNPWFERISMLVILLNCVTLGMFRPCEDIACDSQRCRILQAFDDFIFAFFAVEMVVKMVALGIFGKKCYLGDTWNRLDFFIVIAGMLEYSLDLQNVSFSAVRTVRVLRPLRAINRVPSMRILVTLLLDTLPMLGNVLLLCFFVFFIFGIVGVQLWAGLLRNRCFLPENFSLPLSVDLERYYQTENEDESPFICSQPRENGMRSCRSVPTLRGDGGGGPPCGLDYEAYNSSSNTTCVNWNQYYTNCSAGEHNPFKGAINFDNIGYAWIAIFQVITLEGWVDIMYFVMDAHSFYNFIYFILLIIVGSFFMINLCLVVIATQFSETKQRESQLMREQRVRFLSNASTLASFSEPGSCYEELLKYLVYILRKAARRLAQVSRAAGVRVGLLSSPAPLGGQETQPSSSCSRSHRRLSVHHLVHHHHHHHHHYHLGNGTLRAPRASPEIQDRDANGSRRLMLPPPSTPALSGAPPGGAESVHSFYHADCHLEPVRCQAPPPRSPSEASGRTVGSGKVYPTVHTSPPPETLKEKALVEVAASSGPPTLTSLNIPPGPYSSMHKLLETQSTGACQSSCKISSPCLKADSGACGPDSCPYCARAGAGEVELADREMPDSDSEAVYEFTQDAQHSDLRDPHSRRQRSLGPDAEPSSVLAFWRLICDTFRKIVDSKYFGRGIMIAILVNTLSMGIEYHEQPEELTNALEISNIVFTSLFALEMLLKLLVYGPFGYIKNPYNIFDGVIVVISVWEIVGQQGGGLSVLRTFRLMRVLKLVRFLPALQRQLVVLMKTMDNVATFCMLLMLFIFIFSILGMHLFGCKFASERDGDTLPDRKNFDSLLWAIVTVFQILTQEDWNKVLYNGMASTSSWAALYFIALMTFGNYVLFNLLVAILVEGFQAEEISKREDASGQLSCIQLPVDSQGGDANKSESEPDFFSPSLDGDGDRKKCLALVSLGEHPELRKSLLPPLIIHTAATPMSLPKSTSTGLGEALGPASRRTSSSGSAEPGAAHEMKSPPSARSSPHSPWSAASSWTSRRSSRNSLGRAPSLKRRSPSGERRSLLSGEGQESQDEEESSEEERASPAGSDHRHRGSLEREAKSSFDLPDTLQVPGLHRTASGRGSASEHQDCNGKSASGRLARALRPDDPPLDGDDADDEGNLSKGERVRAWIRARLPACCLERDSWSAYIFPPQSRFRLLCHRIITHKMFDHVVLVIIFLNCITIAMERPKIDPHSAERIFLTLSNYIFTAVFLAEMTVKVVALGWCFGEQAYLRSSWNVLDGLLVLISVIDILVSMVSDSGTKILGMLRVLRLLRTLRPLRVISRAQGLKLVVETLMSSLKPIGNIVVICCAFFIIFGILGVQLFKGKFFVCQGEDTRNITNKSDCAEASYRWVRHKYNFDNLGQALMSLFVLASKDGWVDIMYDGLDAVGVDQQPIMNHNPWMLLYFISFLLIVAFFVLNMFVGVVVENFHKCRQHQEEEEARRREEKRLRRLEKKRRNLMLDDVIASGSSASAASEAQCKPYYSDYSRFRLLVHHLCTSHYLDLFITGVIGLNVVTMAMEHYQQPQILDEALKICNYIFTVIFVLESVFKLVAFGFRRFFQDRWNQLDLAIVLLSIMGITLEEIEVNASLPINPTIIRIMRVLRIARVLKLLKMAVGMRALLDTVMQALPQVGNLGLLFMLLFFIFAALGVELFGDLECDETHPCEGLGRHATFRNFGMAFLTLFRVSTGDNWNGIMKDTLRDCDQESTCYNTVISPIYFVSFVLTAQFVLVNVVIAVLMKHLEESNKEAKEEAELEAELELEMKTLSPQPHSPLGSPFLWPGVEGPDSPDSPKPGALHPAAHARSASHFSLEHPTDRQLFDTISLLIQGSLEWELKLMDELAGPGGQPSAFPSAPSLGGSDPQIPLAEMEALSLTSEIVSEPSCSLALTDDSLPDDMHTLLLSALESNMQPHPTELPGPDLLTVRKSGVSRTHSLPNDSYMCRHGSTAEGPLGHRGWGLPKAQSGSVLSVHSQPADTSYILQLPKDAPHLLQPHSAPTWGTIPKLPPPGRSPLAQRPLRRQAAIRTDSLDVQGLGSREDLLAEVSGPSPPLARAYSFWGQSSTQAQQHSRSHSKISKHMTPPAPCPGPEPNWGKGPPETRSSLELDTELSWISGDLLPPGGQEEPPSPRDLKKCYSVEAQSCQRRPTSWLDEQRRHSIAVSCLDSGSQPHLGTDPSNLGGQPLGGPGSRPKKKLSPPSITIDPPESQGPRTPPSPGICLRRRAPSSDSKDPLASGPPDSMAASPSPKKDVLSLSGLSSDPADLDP
From the text: as §2

[10] = target: Human Cav 2.2 channels (Homo sapiens, UniProt Q00975); assay: Fluorescent assay for CaV2.2 channels using potassium depolarization (VIPR/FLIPR); assay type: cell-based; conditions: FLIPR data
Summary of the method: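 Fluo-4 calcium fluorescence (480/535 nm) was recorded on VIPR or FLIPR after depolarization to 70 mM final potassium. Before this, cells were preincubated 30 min at 25 °C with compound in 4–30 mM potassium, so that state-dependent block could be assessed; the cells were HEK293 coexpressing Cav2.2, α2δ, β and Kir2.3.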

[11] = closed state, read-out: CAv1.2 IC50 Closed
[12] = inactivated state, read-out: CAv1.2 IC50 Inact.
[13] = CAv3.2, closed state, read-out: CAv3.2 IC50 Closed
[14] = CAv3.2, inactivated state, read-out: CAv3.2 IC50 Inact.
[15] = closed state, read-out: CAv2.2 IC50 Closed
[16] = inactivated state, read-out: CAv2.2 IC50 Inact.

Chain of human α1G T-type channels (O43497 whole entry): as above

| Structure (SMILES) | Epilepsy 6 Hz (% protected) 0.25 hr [2] [%] | Epilepsy 6 Hz (% protected) 0.5 hr [2] [%] | Epilepsy 6 Hz (% protected) 1 hr [2] [%] | Epilepsy 6 Hz (% protected) 2 hr [2] [%] | Epilepsy 6 Hz (% protected) 4 hr [2] [%] | EPILEPSY ROTAROD (% IMPAIRED) 0.25 hr [3] [%] | EPILEPSY ROTAROD (% IMPAIRED) 0.5 hr [3] [%] | EPILEPSY ROTAROD (% IMPAIRED) 1 hr [3] [%] | EPILEPSY ROTAROD (% IMPAIRED) 2 hr [3] [%] | EPILEPSY ROTAROD (% IMPAIRED) 4 hr [3] [%] | IC50 [5] [nM] | also measured |
| --- | --- | --- | --- | --- | --- | --- | --- | --- | --- | --- | --- | --- |
| O=C(NC1CCC(F)(S(=O)(=O)c2cccc(C(F)(F)F)c2)CC1)c1nocc1C1CC1 [Compound 272, 4-cyclopropyl-N-((1S,4S)-4-fluoro-4-(3-(trifluoromethyl)phenylsulfonyl)cyclohexyl) isoxazole-3-carboxamide] | 0 | 0 | 0 | 0 | 0 | 0 | 0 | 0 | 0 | 0 | 430 | IC50 [1]: > 10 µM; IC50 [4]: > 10 µM |
| O=C(NC1CCC(F)(S(=O)(=O)c2cccc(C(F)(F)F)c2)CC1)[C@@H]1C[C@@H](c2ccccc2)CN1 (stereo partly drawn) [Compound 285, (2S,4S)-N-((1S,4R)-4-fluoro-4-(3-(trifluoromethyl)phenylsulfonyl)cyclohexyl)-4-phenylpyrrolidine-2-carboxamide] | 0 | 100 | 100 | 100 | 0 | 100 | 100 | 100 | 100 | 0 | – | – |
| CS(=O)(=O)c1nc(C(F)(F)F)ccc1C(=O)NCC1CC(S(=O)(=O)c2cccc(C(F)(F)F)c2)C1 [Compound 365, 2-(methylsulfonyl)-6-(trifluoromethyl)-N-(((1R,3R)-3-(3-(trifluoromethyl)phenylsulfonyl)cyclobutyl)methyl)nicotinamide] | 25 | 50 | 50 | 25 | 25 | 0 | 0 | 0 | 0 | 0 | 1610 | IC50 [1]: 6.48 µM; IC50 [4]: 2.19 µM |
| CC(C)S(=O)(=O)c1cc(C(F)(F)F)cnc1C(=O)NC[C@H]1C[C@H](S(=O)(=O)c2cccc(C(F)(F)F)c2)C1 [Compound 374, 3-(isopropylsulfonyl)-5-(trifluoromethyl)-N-(((1R,3R)-3-(3-(trifluoromethyl)phenylsulfonyl)cyclobutyl)methyl)picolinamide] | 0 | 0 | 0 | 0 | 0 | 0 | 0 | 0 | 0 | 0 | 250 | IC50 [1]: 7.73 µM; IC50 [4]: 2.11 µM |
| O=C(NCC1CC(S(=O)(=O)c2cc(F)cc(C(F)(F)F)c2)C1)c1cc(F)cc(Cl)c1 [Compound 396, 3-chloro-5-fluoro-N-(((1R,3R)-3-(3-fluoro-5-(trifluoromethyl)phenylsulfonyl)cyclobutyl)methyl)benzamide] | 50 | 0 | 0 | 25 | 0 | – | – | – | – | – | 940 | EPILEPSY ROTAROD (% IMPAIRED) 0.25 hr [6]: 0%; EPILEPSY ROTAROD (% IMPAIRED) 0.5 hr [6]: 0%; EPILEPSY ROTAROD (% IMPAIRED) 1 hr [6]: 0%; EPILEPSY ROTAROD (% IMPAIRED) 2 hr [6]: 0%; EPILEPSY ROTAROD (% IMPAIRED) 4 hr [6]: 0% |
| CC(C)(C1CC(NC(=O)c2cn3cc(C(F)(F)F)ccc3n2)C1)S(=O)(=O)c1cccc(C(F)(F)F)c1 [Compound 438, 6-(trifluoromethyl)-N-((1R,3R)-3-(2-(3-(trifluoromethyl)phenylsulfonyl)propan-2-yl)cyclobutyl)imidazo[1,2-a]pyridine-2-carboxamide] | 75 | 0 | 0 | 25 | 0 | – | – | – | – | – | 400 | EPILEPSY ROTAROD (% IMPAIRED) 0.25 hr [6]: 0%; EPILEPSY ROTAROD (% IMPAIRED) 0.5 hr [6]: 0%; EPILEPSY ROTAROD (% IMPAIRED) 1 hr [6]: 0%; EPILEPSY ROTAROD (% IMPAIRED) 2 hr [6]: 0%; EPILEPSY ROTAROD (% IMPAIRED) 4 hr [6]: 0% |
| CC(C)([C@H]1C[C@@H](NC(=O)c2ccc(C(F)(F)F)cc2S(C)(=O)=O)C1)S(=O)(=O)c1cccc(C(F)(F)F)c1 [Compound 542] | 0 | 0 | 0 | 0 | 0 | 0 | 0 | 0 | 0 | 0 | – | – |
| CC(C)([C@H]1C[C@@H](NC(=O)c2cc(C(F)(F)F)n[nH]2)C1)S(=O)(=O)c1cccc(C(F)(F)F)c1 [Compound 543] | 0 | 0 | 0 | 0 | 0 | 0 | 0 | 0 | 0 | 0 | – | – |
| CC(C)([C@H]1C[C@@H](NC(=O)c2cc(C(F)(F)F)ccn2)C1)S(=O)(=O)c1cccc(C(F)(F)F)c1 [Compound 551] | 25 | 0 | 0 | 0 | 0 | 0 | 0 | 0 | 0 | 0 | – | – |
| Cn1nc(C(F)(F)F)cc1NC(=O)[C@H]1C[C@H](C(C)(C)S(=O)(=O)c2cccc(C(F)(F)F)c2)C1 [Compound 769] | – | – | – | – | – | – | – | – | – | – | – | IC50 [7, 11]: 8.49 µM; IC50 [7, 12]: 1.47 µM; CAv1.2 IC50 Ratio closed/inact. ([7]; ratio closed/inact.): 5.8; IC50 [8, 13]: 5.36 µM; IC50 [8, 14]: 3.78 µM; CAv3.2 IC50 Ratio closed/inact. [8]: 1.4; IC50 [9]: 4.72 µM; IC50 [10, 15]: 4.98 µM; IC50 [10, 16]: 0.34 µM; CAv2.2 IC50 Ratio closed/inact. [10]: 14.6 |
| O=C(NC[C@H]1C[C@H](S(=O)(=O)c2cccc(Cl)c2)C1)c1ccc(C(F)(F)F)cc1 [Compound 771] | – | – | – | – | – | – | – | – | – | – | – | IC50 [7, 11]: ≥ 10 µM; IC50 [7, 12]: ≥ 10 µM; IC50 [8, 13]: 5.44 µM; IC50 [8, 14]: 3.04 µM; CAv3.2 IC50 Ratio closed/inact. [8]: 1.8; IC50 [9]: ≥ 10 µM; IC50 [10, 15]: 10 µM; IC50 [10, 16]: 2.01 µM; CAv2.2 IC50 Ratio closed/inact. [10]: 5 |
| O=C(NC[C@H]1C[C@H](S(=O)(=O)c2cccc(Cl)c2)C1)c1ccc(OCC(F)(F)F)nc1 [Compound 775] | – | – | – | – | – | – | – | – | – | – | – | IC50 [7, 11]: ≥ 10 µM; IC50 [7, 12]: ≥ 10 µM; IC50 [8, 13]: 8.66 µM; IC50 [8, 14]: 1.62 µM; CAv3.2 IC50 Ratio closed/inact. [8]: 5.3; IC50 [9]: ≥ 10 µM; IC50 [10, 15]: 10 µM; IC50 [10, 16]: 5.78 µM; CAv2.2 IC50 Ratio closed/inact. [10]: 1.7 |
